Experiments:
[1] = tested on: CD34+/CD45RA− mobilized peripheral blood cells; details: Fares et al., 2014; cited from earlier work
[2] = tested on: CD34+ cells from human umbilical cord blood; assay: CD34+ cell culture and expansion while limiting differentiation (StemSpan ACF + CC110), flow cytometry; assay type: cell-based
Method: CD34+ cells were isolated from human umbilical cord blood by positive selection according to standard procedures. Purified CD34+ cells from either single units or pooled from several units of cord blood were seeded in 1 mL of the appropriate culture medium in 24-well plates at a density of approximately 10^5 cells/mL. Cells were maintained at a density of 10^5-10^6 cells/mL throughout the culture by dilution and/or medium replacement.
For CD34+ cell culture and expansion while limiting differentiation, cells were grown in StemSpan™-ACF medium ([…]™ Technologies) supplemented with StemSpan™ CC110 cytokine cocktail ([…]™ Technologies), and counted on days 4, 7, 10, 14, 17, and 21.
Cell counts and viability were measured using the NucleoCounter NC-250™ Viability and Cell Count Assay system (ChemoMetec Inc., Davis, Calif.), according to the manufacturer's instructions.
Cell phenotypes were determined by flow cytometry on the indicated days using the following panel of labeled primary antibodies: CD34-FITC, CD45RA-APC, CD41a-APC, CD42b-PE, and CD235-PE.
CD34+ cells were isolated and cultured in a medium suitable for maintaining their self-renewal while limiting their differentiation into progenitors (StemSpan™ ACF supplemented with StemSpan™ CC110 cytokine cocktail, as described in Example 1.2).
Cell phenotypic profiles of the expanded CD34+ cells were determined on days 4, 7, 10, 14, 17, and 21 by flow cytometry as described in Example 1.3.

cord blood CD34+ cells = assay: Expansion of CD34+/CD41+ megakaryocytic progenitors from cord blood CD34+ cells; assay type: cell-based, human; details: 39° C. + PIC 35 nM; 14 days; ACF + OMPC; FIG. 4
Method: Human cord blood (CB) was collected after obtaining written informed consent from donors, following our institutional Research Ethics Committee guidelines. Mononuclear cells (MNCs) were first separated over a Ficoll-Hypaque™ density gradient (GE Healthcare), then cryopreserved at −180° C. in Cryostor CS10™ medium ([…] Technologies). Thawed MNCs from six to eight CB were pooled before CD34 isolation. CB CD34+ cells were enriched by positive selection using the EasySep™ CD34 enrichment kit, according to the manufacturer's instructions ([…] Technologies). […]
Cellular counts and viability were determined by adding Solution 18 (Acridine Orange and DAPI solution, ChemomMetec) and using NucleoCounter™ NC-250 for detection (ChemomMetec).
For cells expanded in conditions favoring differentiation towards the MK lineage, surface markers were detected using the following antibodies: CD34-FITC, CD41a-APC and CD42b-PE. […] All samples were analyzed on an Accuri™ C6 flow cytometer (BD Biosciences), and raw data were analyzed with FCS Express 5 Flow Research Edition software from at least 15 000 viable cell events acquired for each sample. […]
Cellular counts and viability were determined as described in Example 6.5. […]

**Q.** Which “expansion of CD34+/CD45RA− mobilized peripheral blood cells (enriched in LT-HSCs)” value [1] does the source give for Cl.Cn1nnc(-c2ccc3c(c2)[nH]c2nc(Cc4ccccc4)nc(N[C@H]4CC[C@H](N)CC4)c23)n1 [PIC, (1r,4r)-N1-(2-benzyl-7-(2-methyl-2H-tetrazol-5-yl)-9H-pyrimido[4,5-b]indol-4-yl)cyclohexane-1,4-diamine hydrochloride] here?
**A.** stimulate expansion

**Q.** And the “expansion of CD34+/CD45RA− LT-HSCs” value ([2]; 39° C. + PIC 35 nM, FIG. 3B)?
**A.** potently enhanced

**Q.** What about the “Percentage of cells bearing CD34+” value ([2]; Day 4, 37° C. + PIC 35 nM) of the same compound?
**A.** 97.91%

**Q.** What about the “Percentage of cells bearing CD34+/CD41+” value ([2]; Day 4, 37° C. + PIC 35 nM) of the same compound?
**A.** 12.51%

**Q.** And the “Percentage of cells bearing CD34+/CD235+” value ([2]; Day 4, 37° C. + PIC 35 nM)?
**A.** 4.83%

**Q.** What about the “Percentage of cells bearing CD41+” value ([2]; Day 4, 37° C. + PIC 35 nM) of the same compound?
**A.** 12.53%

**Q.** What about the “Percentage of cells bearing CD42+” value ([2]; Day 4, 37° C. + PIC 35 nM) of the same compound?
**A.** 1.08%

**Q.** What about the “Percentage of cells bearing CD45RA+” value ([2]; Day 4, 37° C. + PIC 35 nM) of the same compound?
**A.** 65.34%

**Q.** And the “Percentage of cells bearing CD235+” value ([2]; Day 4, 37° C. + PIC 35 nM)?
**A.** 4.87%

**Q.** And the “Percentage of cells bearing CD34+” value ([2]; Day 4, 39° C. + PIC 35 nM)?
**A.** 94.74%

**Q.** And the “Percentage of cells bearing CD34+/CD41+” value ([2]; Day 4, 39° C. + PIC 35 nM)?
**A.** 8.37%

**Q.** What about the “Percentage of cells bearing CD34+/CD235+” value ([2]; Day 4, 39° C. + PIC 35 nM) of the same compound?
**A.** 3.65%

**Q.** And the “Percentage of cells bearing CD41+” value ([2]; Day 4, 39° C. + PIC 35 nM)?
**A.** 9.05%

**Q.** What about the “Percentage of cells bearing CD42+” value ([2]; Day 4, 39° C. + PIC 35 nM) of the same compound?
**A.** 2.21%

**Q.** What about the “Percentage of cells bearing CD45RA+” value ([2]; Day 4, 39° C. + PIC 35 nM) of the same compound?
**A.** 57.92%

**Q.** And the “Percentage of cells bearing CD235+” value ([2]; Day 4, 39° C. + PIC 35 nM)?
**A.** 4.11%

**Q.** And the “Percentage of cells bearing CD34+” value ([2]; Day 7, 37° C. + PIC 35 nM)?
**A.** 94.61%

**Q.** What about the “Percentage of cells bearing CD34+/CD41+” value ([2]; Day 7, 37° C. + PIC 35 nM) of the same compound?
**A.** 15.74%

**Q.** And the “Percentage of cells bearing CD34+/CD235+” value ([2]; Day 7, 37° C. + PIC 35 nM)?
**A.** 5.28%

**Q.** What about the “Percentage of cells bearing CD41+” value ([2]; Day 7, 37° C. + PIC 35 nM) of the same compound?
**A.** 15.93%

**Q.** What about the “Percentage of cells bearing CD42+” value ([2]; Day 7, 37° C. + PIC 35 nM) of the same compound?
**A.** 1.30%

**Q.** What about the “Percentage of cells bearing CD45RA+” value ([2]; Day 7, 37° C. + PIC 35 nM) of the same compound?
**A.** 80.07%

**Q.** What about the “Percentage of cells bearing CD34+” value ([2]; Day 7, 39° C. + PIC 35 nM) of the same compound?
**A.** 88.27%

**Q.** And the “Percentage of cells bearing CD34+/CD41+” value ([2]; Day 7, 39° C. + PIC 35 nM)?
**A.** 16.17%

**Q.** And the “Percentage of cells bearing CD34+/CD235+” value ([2]; Day 7, 39° C. + PIC 35 nM)?
**A.** 9.68%

**Q.** What about the “Percentage of cells bearing CD41+” value ([2]; Day 7, 39° C. + PIC 35 nM) of the same compound?
**A.** 18.12%

**Q.** What about the “Percentage of cells bearing CD42+” value ([2]; Day 7, 39° C. + PIC 35 nM) of the same compound?
**A.** 2.92%

**Q.** And the “Percentage of cells bearing CD45RA+” value ([2]; Day 7, 39° C. + PIC 35 nM)?
**A.** 74.14%

**Q.** What about the “Percentage of cells bearing CD235+” value ([2]; Day 7, 39° C. + PIC 35 nM) of the same compound?
**A.** 10.89%

**Q.** And the “Percentage of cells bearing CD34+” value ([2]; Day 10, 37° C. + PIC 35 nM)?
**A.** 84.26%

**Q.** And the “Percentage of cells bearing CD34+/CD41+” value ([2]; Day 10, 37° C. + PIC 35 nM)?
**A.** 12.94%

**Q.** And the “Percentage of cells bearing CD34+/CD235+” value ([2]; Day 10, 37° C. + PIC 35 nM)?
**A.** 2.16%

**Q.** What about the “Percentage of cells bearing CD41+” value ([2]; Day 10, 37° C. + PIC 35 nM) of the same compound?
**A.** 14.19%

**Q.** What about the “Percentage of cells bearing CD42+” value ([2]; Day 10, 37° C. + PIC 35 nM) of the same compound?
**A.** 0.48%

**Q.** What about the “Percentage of cells bearing CD45RA+” value ([2]; Day 10, 37° C. + PIC 35 nM) of the same compound?
**A.** 88.37%

**Q.** What about the “Percentage of cells bearing CD235+” value ([2]; Day 10, 37° C. + PIC 35 nM) of the same compound?
**A.** 2.33%

**Q.** And the “Percentage of cells bearing CD34+” value ([2]; Day 10, 39° C. + PIC 35 nM)?
**A.** 71.28%

**Q.** What about the “Percentage of cells bearing CD34+/CD41+” value ([2]; Day 10, 39° C. + PIC 35 nM) of the same compound?
**A.** 20.80%

**Q.** What about the “Percentage of cells bearing CD34+/CD235+” value ([2]; Day 10, 39° C. + PIC 35 nM) of the same compound?
**A.** 7.94%

**Q.** What about the “Percentage of cells bearing CD41+” value ([2]; Day 10, 39° C. + PIC 35 nM) of the same compound?
**A.** 27.40%

**Q.** And the “Percentage of cells bearing CD42+” value ([2]; Day 10, 39° C. + PIC 35 nM)?
**A.** 1.35%

**Q.** What about the “Percentage of cells bearing CD45RA+” value ([2]; Day 10, 39° C. + PIC 35 nM) of the same compound?
**A.** 82.34%

**Q.** And the “Percentage of cells bearing CD235+” value ([2]; Day 10, 39° C. + PIC 35 nM)?
**A.** 9.36%

**Q.** What about the “Percentage of cells bearing CD34+” value ([2]; Day 14, 37° C. + PIC 35 nM) of the same compound?
**A.** 58.28%

**Q.** What about the “Percentage of cells bearing CD34+/CD41+” value ([2]; Day 14, 37° C. + PIC 35 nM) of the same compound?
**A.** 9.55%

**Q.** And the “Percentage of cells bearing CD34+/CD45RA−” value ([2]; Day 14, 37° C. + PIC 35 nM)?
**A.** 15.22%

**Q.** And the “Percentage of cells bearing CD34+/CD235+” value ([2]; Day 14, 37° C. + PIC 35 nM)?
**A.** 1.39%

**Q.** What about the “Percentage of cells bearing CD41+” value ([2]; Day 14, 37° C. + PIC 35 nM) of the same compound?
**A.** 15.16%

**Q.** What about the “Percentage of cells bearing CD42+” value ([2]; Day 14, 37° C. + PIC 35 nM) of the same compound?
**A.** 0.19%

**Q.** And the “Percentage of cells bearing CD45RA+” value ([2]; Day 14, 37° C. + PIC 35 nM)?
**A.** 84.63%

**Q.** What about the “Percentage of cells bearing CD235+” value ([2]; Day 14, 37° C. + PIC 35 nM) of the same compound?
**A.** 2.10%

**Q.** And the “Percentage of cells bearing CD34+” value ([2]; Day 14, 39° C. + PIC 35 nM)?
**A.** 48.58%

**Q.** And the “Percentage of cells bearing CD34+/CD41+” value ([2]; Day 14, 39° C. + PIC 35 nM)?
**A.** 13.88%

**Q.** And the “Percentage of cells bearing CD34+/CD45RA−” value ([2]; Day 14, 39° C. + PIC 35 nM)?
**A.** 19.74%

**Q.** And the “Percentage of cells bearing CD34+/CD235+” value ([2]; Day 14, 39° C. + PIC 35 nM)?
**A.** 3.72%

**Q.** What about the “Percentage of cells bearing CD41+” value ([2]; Day 14, 39° C. + PIC 35 nM) of the same compound?
**A.** 32.04%

**Q.** And the “Percentage of cells bearing CD42+” value ([2]; Day 14, 39° C. + PIC 35 nM)?
**A.** 1.16%

**Q.** And the “Percentage of cells bearing CD45RA+” value ([2]; Day 14, 39° C. + PIC 35 nM)?
**A.** 81.97%

**Q.** What about the “Percentage of cells bearing CD34+” value ([2]; Day 17, 37° C. + PIC 35 nM) of the same compound?
**A.** 48.29%

**Q.** What about the “Percentage of cells bearing CD34+/CD41+” value ([2]; Day 17, 37° C. + PIC 35 nM) of the same compound?
**A.** 9.75%

**Q.** And the “Percentage of cells bearing CD34+/CD45RA−” value ([2]; Day 17, 37° C. + PIC 35 nM)?
**A.** 13.58%

**Q.** What about the “Percentage of cells bearing CD34+/CD235+” value ([2]; Day 17, 37° C. + PIC 35 nM) of the same compound?
**A.** 0.52%

**Q.** What about the “Percentage of cells bearing CD41+” value ([2]; Day 17, 37° C. + PIC 35 nM) of the same compound?
**A.** 24.70%

**Q.** And the “Percentage of cells bearing CD42+” value ([2]; Day 17, 37° C. + PIC 35 nM)?
**A.** 0.63%

**Q.** And the “Percentage of cells bearing CD45RA+” value ([2]; Day 17, 37° C. + PIC 35 nM)?
**A.** 87.89%

**Q.** And the “Percentage of cells bearing CD235+” value ([2]; Day 17, 37° C. + PIC 35 nM)?
**A.** 3.94%

**Q.** What about the “differentiation of the cells towards the megakaryocytic and erythroid (CD235+) lineages” value ([2]; combined mild hyperthermia (39° C.) and PIC 35 nM) of the same compound?
**A.** did not lead to an enhanced differentiation

**Q.** And the “combined use of mild hyperthermia and PIC on expansion of CD34+/CD41+ cells” value (cord blood CD34+ cells)?
**A.** synergistic effect
